Test results published in article PMC3923627 (Cell reports, 2013).

Biological target: p300 histone acetyltransferase (Homo sapiens, UniProt Q09472)
Assay: in vitro histone acetyltransferase assay with purified human p300
Assay type: biochemical

p300 histone acetyltransferase, sequence (Q09472 2-2414): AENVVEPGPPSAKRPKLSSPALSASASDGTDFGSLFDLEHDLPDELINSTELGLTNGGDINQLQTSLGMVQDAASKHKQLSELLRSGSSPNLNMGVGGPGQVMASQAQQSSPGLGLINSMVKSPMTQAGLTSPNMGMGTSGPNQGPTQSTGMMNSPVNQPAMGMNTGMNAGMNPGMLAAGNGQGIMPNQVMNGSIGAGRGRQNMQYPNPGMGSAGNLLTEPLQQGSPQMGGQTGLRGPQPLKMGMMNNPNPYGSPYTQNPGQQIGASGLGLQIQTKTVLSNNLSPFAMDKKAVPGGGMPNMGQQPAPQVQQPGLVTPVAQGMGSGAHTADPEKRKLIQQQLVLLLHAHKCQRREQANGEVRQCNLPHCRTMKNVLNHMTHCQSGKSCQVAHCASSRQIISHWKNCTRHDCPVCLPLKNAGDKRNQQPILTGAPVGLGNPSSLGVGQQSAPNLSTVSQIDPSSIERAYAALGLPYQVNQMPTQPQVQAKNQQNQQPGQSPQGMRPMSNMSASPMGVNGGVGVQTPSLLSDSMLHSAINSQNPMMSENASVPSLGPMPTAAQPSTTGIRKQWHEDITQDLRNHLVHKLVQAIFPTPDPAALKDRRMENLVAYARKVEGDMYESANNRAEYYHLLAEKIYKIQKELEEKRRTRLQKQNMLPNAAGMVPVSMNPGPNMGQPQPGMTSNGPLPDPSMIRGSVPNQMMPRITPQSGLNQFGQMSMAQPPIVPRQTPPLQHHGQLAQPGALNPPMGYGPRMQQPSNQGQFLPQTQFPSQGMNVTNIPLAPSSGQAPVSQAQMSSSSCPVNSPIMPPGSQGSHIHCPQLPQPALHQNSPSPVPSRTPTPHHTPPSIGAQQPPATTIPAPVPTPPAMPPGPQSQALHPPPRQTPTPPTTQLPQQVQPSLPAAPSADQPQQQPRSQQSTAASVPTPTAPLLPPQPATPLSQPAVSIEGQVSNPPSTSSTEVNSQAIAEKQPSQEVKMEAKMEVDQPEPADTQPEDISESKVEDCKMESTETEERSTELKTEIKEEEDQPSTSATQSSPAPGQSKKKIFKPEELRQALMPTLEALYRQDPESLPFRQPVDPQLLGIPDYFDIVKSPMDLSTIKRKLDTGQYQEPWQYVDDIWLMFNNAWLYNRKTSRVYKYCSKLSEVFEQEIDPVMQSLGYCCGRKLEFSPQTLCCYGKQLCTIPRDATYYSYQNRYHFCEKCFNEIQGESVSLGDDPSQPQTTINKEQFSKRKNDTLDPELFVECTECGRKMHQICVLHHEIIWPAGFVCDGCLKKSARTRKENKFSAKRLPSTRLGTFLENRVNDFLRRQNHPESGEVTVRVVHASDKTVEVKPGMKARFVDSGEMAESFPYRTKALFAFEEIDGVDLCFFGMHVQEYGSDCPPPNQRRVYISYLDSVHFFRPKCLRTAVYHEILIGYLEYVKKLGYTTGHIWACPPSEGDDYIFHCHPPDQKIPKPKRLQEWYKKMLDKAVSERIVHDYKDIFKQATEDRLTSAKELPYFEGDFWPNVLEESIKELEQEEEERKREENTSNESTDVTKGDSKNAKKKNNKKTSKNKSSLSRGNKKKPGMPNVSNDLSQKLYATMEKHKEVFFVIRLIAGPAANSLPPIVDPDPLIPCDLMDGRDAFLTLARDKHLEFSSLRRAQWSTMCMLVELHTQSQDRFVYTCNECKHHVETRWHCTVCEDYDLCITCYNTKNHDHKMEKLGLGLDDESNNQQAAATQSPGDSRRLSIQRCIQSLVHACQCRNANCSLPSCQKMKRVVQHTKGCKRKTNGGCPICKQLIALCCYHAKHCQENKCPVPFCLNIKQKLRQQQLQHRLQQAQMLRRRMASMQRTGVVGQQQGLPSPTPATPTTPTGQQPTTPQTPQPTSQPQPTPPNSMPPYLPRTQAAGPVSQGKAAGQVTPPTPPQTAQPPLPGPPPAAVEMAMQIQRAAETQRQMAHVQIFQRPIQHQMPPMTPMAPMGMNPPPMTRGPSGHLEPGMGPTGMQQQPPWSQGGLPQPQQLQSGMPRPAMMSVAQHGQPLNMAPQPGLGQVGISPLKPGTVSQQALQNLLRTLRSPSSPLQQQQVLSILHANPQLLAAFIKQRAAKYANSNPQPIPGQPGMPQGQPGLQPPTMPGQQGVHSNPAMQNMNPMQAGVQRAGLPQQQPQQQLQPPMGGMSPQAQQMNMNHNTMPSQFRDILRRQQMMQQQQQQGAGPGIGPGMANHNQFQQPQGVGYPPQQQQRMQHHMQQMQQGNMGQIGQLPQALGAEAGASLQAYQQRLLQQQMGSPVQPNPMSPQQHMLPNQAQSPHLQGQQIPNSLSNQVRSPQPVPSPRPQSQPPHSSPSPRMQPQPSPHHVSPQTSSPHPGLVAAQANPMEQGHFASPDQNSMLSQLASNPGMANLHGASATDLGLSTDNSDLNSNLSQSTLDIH

IC50: 4.2 µM
Structure (SMILES): COc1ccc(/C(Cl)=C(/C=O)c2ccc(OC)cc2)cc1 [WD, (Z) 3-chloro-2,3-bis(4-methoxyphenyl)acrylaldehyde]
